Test results from patent US9901573B2, “Compositions, methods, and kits for regulating energy metabolism” (NuSirt Sciences, Inc., priority 2012, dated 2018).
Marks after values point to notes of the source that are not given here.

Tests used:
Phospho-AMPKα (Thr172) = Phospho-AMPKα (Thr172) Western blot in myotubes; format: cell-based; conditions: C2C12 myotubes, FIG. 11
Method: (§1) Cell Culture: C2C12 and 3T3-L1 preadipocytes (American Type Culture Collection) were plated at a density of 8000 cells/cm^2 (10 cm^2 dish) and grown in Dulbecco's modified eagle's medium (DMEM) containing 10% fetal bovine serum (FBS), and antibiotics (growth medium) at 37° C. in 5% CO2. Confluent 3T3-L1 preadipocytes were induced to differentiate with a standard differentiation medium consisting of DMEM medium supplemented with 10% FBS, 250 nM dexamethasone, 0.5 mM 3-Isobutyl-1-methylxanthine (IBMX) and 1% penicillin-streptomycin. Preadipocytes were maintained in this differentiation medium for 3 days and subsequently cultured in growth medium. Cultures were re-fed every 2-3 days to allow >90% cells to reach fully differentiation before conducting chemical treatment. For differentiation of C2C12 cells, cells were grown to 100% confluence, transferred to differentiation medium (DMEM with 2% horse serum and 1% penicillin-streptomycin), and fed with fresh differentiation medium every day until myotubes were fully formed (3 days).
(§2) Western blot: The Phospho-AMPKα (Thr172)- and Sirt1 (mouse specific)-antibody was obtained from Cell Signaling (Danvers, Mass.). C2C12 myotubes were treated as indicated in results and the cellular fractions were prepared using standard methods. Protein was measured by BCA kit (Thermo Scientific). […] Visualization and chemiluminescent detection was conducted using BioRad ChemiDoc instrumentation and software (Bio-Rad Laboratories, Hercules, Calif.) and band intensity was assessed using Image Lab 4.0 (Bio-Rad Laboratories, Hercules, Calif.), with correction for background and loading controls. P-AMPK was detected at 61-66 kDA and Sirt1 was detected at 104-115 kDA.

3T3-L1 adipocytes = assay: Intracellular Ca2+ by fura-2 imaging in adipocytes; format: cell-based
Method: Cell culture: 3T3-L1 pre-adipocytes were incubated at a density of 8000 cells/cm^2 (10 cm^2 dish) and grown in the absence of insulin in Dulbecco's modified Eagle's medium (DMEM) containing 10% FBS and antibiotics (1% penicillin-streptomycin)(adipocyte medium) at 37° C. in 5% CO2 in air. Confluent pre-adipocytes were induced to differentiate with a standard differentiation medium consisting of DMEM-F10 (1:1, vol/vol) medium supplemented with 1% fetal bovine serum (FBS), 250 nM dexamethasone (DEXA), isobutylmethylxanthine (IBMX) (0.5 mM) and antibiotics. Pre-adipocytes were maintained in this differentiation medium for 3 days (unless specifically indicated) and subsequently cultured in adipocyte medium. Cultures were re-fed every 2-3 days to allow 90% cells to reach fully differentiation before treatment.
Intracellular Ca^2+ ([Ca^2+]i): [Ca^2+]i was measured using a fura-2 dual wavelength fluorescence imaging system. Adipocytes were plated and differentiated in 35 mm dishes with glass coverslips (P35G-0-14-C, MatTek Corporation). Prior to [Ca^2+]i measurement, cells were preincubated in serum-free medium overnight and rinsed with Hepes Balanced Salt Solution (HBSS) containing the following components (in mM): NaCl 138, CaCl2 1.8, MgSO4 0.8, NaH2PO4 0.9, NaHCO3 4, glucose 5, glutamine 6, Hepes 20, and bovine serum albumin 1%. Cells were loaded with fura-2 acetoxymethyl ester (AM) (10 μM) in the same buffer for 2 hr at 37° C. in a dark incubator with 5% CO2. To remove extracellular dye, cells were rinsed with HBSS 3 times and then postincubated at room temperature for an additional 1 hr for complete hydrolysis of cytoplasmic fura-2 AM. The dishes with dye-loaded cells were mounted on the stage of Nikon TMS-F fluorescence inverted microscope with a Cohu 4915 CCD camera. Fluorescent images were captured alternatively at excitation wavelength of […] with an emission wavelength of 520 nm. [Ca^2]i was calculated using a standard ratio equation. Each analysis evaluated responses of 8-10 representative whole cells. Images were analyzed with InCytIm2 version 4.62 imaging software (Intracellular Imaging, Cincinnati, Ohio). Images were calibrated using a fura-2 calcium imaging calibration kit (Molecular Probes, Eugene, Oreg.) to create a calibration curve in solution, and cellular calibration was accomplished using digitonin (25 μM) and pH 8.7 Tris-EGTA (100 mM) to measure maximal and minimal [Ca^2+]i levels.

C2C12 myotubes = assay: Fatty acid oxidation (O2 consumption response to palmitate) in myotubes; format: cell-based; conditions: FIG. 4/5, 24 hours, leucine, valine, isoleucine 0.5 mM, B6 100 nM as pyridoxal phosphate, vs control
Method: Cell Culture: C2C12 and 3T3-L1 preadipocytes (American Type Culture Collection) were plated at a density of 8000 cells/cm^2 (10 cm^2 dish) and grown in Dulbecco's modified eagle's medium (DMEM) containing 10% fetal bovine serum (FBS), and antibiotics (growth medium) at 37° C. in 5% CO2. Confluent 3T3-L1 preadipocytes were induced to differentiate with a standard differentiation medium consisting of DMEM medium supplemented with 10% FBS, 250 nM dexamethasone, 0.5 mM 3-Isobutyl-1-methylxanthine (IBMX) and 1% penicillin-streptomycin. Preadipocytes were maintained in this differentiation medium for 3 days and subsequently cultured in growth medium. Cultures were re-fed every 2-3 days to allow >90% cells to reach fully differentiation before conducting chemical treatment. For differentiation of C2C12 cells, cells were grown to 100% confluence, transferred to differentiation medium (DMEM with 2% horse serum and 1% penicillin-streptomycin), and fed with fresh differentiation medium every day until myotubes were fully formed (3 days). Fatty acid oxidation: Cellular oxygen consumption was measured using a Seahorse Bioscience XF24 analyzer (Seahorse Bioscience, Billerica, Mass.) in 24-well plates at 37° C., as described by Feige et al (1) with slight modifications. Cells were seeded at 40,000 cells per well, differentiated as described above, treated for 24 hours with the indicated treatments, washed twice with non-buffered carbonate-free pH 7.4 low glucose (2.5 mM) DMEM containing carnitine (0.5 mM), equilibrated with 550 μL of the same media in a non-CO2 incubator for 45 minutes, and then inserted into the instrument for 15 minutes of further equilibration, followed by O2 consumption measurement. Three successive baseline measurements at five-minute intervals were taken prior to injection of palmitate (200 μM final concentration). Four successive 5-minute measurements of O2 consumption were then conducted, followed by 10 minute re-equilibration and another 3-4 5-minute measurements. This measurement pattern was then repeated over a 4-6 hour period. Data for each sample were normalized to the pre-palmitate injection baseline for that sample and expressed as % change from that baseline. […] The area under of the curve of O2 consumption change from baseline for each sample was then calculated and used for subsequent analysis.

Sirt1 = Sirt1 protein expression Western blot in myotubes; format: cell-based, mouse; conditions: C2C12 myotubes, FIG. 12
Method: as §1, with “For differentiation of C2C12 cells, cells were grown to 100% confluence, transferred to differentiation medium (DMEM with 2% horse serum and 1% penicillin-streptomycin), and fed with fresh differentiation medium every day until myotubes were fully formed (3 days).” left out
as §2, with “C2C12 myotubes were treated as indicated in results and the cellular fractions were prepared using standard methods.” left out

CC(C)C[C@H](N)C(=O)O [Leucine, leucine]
AMPK activation (Phosphorylated AMPK Thr172), increase (Phospho-AMPKα (Thr172)): Neither treatment with leucine, valine, nor B6 alone exerted any significant effect
Intracellular Ca2+ (3T3-L1 adipocytes; Leucine 0.25 mM): 75.2^b ± nM
Intracellular Ca2+ (3T3-L1 adipocytes; Leucine 0.5 mM): 83.7^b ± nM
increase in fatty acid oxidation (C2C12 myotubes): 73%
Sirt1 protein levels, increase (Sirt1): unaffected
